Measurements: patent publication US8883227B2, “Plant pathogen inhibitor combinations and methods of use” (priority 2009, dated 2014)

Experiments:
Assay type in all cases: in vivo
Bremia lactucae = assay: Lettuce downy mildew test on cotyledons
Protocol: Synergy between MBI-106 and acibenzolar-S-methyl or mefenoxam which control a specific class of pathogens Oomycetes was tested with lettuce downy mildew following Su et al. (2004).
To prepare inoculum of downy mildew, lettuce seeds were placed on […] petri-dishes with about 20-30 seeds in each and watered with sterile water, then supplied with ½ strength of Hoagland's solution after germination. The petri dishes were placed at 20° C. growth chamber for 7-10 days. The spores of Bremia lactucae was inoculated on lettuce cotyledons and cultured for 7-10 days at 15° C. for sporulation to occur. Cotyledons with sporulation were cut off and placed in a falcon tube with sterile water. The cotyledons were vortexed for 15 seconds three times and filtered through a 100-uμm mesh to collect sporangia. The solution was adjusted to 0.5 to 1.0×10^5 spores/ml for inoculation.
Four test plants were seeded in each 2-in pots and then placed at 20° C. for 7-10 days to grow cotyledons. Plants were ready for test when the first true leaf was emerging.
The lettuce plants were treated with the materials and left to dry or overnight. Then the plants were inoculated with sporangial solution. The treatments were arranged in a randomized complete block design with four replicates. The inoculated plants were placed in darkness in growth chamber for 48 hours and then incubated under 12-h light period at 15° C. Eight to ten days after inoculation, the cotyledons were rated for disease severity (percentage area covered with sporangiophores).

Sphaerotheca fuliginea = assay: Greenhouse cucumber powdery mildew test, foliar spray alone or in tank mix
Protocol: The studies were conducted in a green house. Experimental design of the studies for synergism followed the Burpee and Latin (2008). Powdery mildew, caused by Sphaerotheca fuliginea, was used for investigating the efficacy of the treatments.
Cucumber seeds cv. “SMR 58” (Irwin & Sons Ag Supply, Inc. Cheshire, Oreg.) were grown in plastic 4-inch pots with potting soil mix (Rod McLellan Company, Marysville, Ohio). The plants were treated at 2-true leaf stage. The compounds at various rates were sprayed with a 2-oz mist sprayer at 2 ml per plant at upper side and 1 ml at lower side of the leaves. The treated plants were left for 3-4 hours under florescent light to dry before inoculation.
A conidia suspension of Sphaerotheca fuliginea, the causal agent of powdery mildew disease on cucumber, was prepared by cutting diseases leaves of the cucumber plants that are served for conservation of inoculum. The suspension were adjusted to 2.0×10^5 conidia per ml and applied with a 2-oz mist sprayer at 2 ml per plant on the upper side of the leaves. The inoculated plants were placed in a greenhouse and the treatments were arranged in randomized complete blocks with 4 to 6 replicates at 25° C. to 30° C.
The disease severity (percentage area covered with colonies) of the first leaves were rated according to James (1971). Disease severity and percentage control were analyzed with analysis of variance (ANOVA) and means of the treatments were compared with Fisher's Protected Least Difference (LSD) at p=0.05 level. Synergetic effect was calculated and analyzed with Limpel's formula (Limpel et al., 1962; Richer, 1987).

Rhizoctonia solani = assay: Soybean seed treatment (seed coating) in infested soil, damping off; conditions: inoculated
Protocol: The experiments described below were conducted with soybean but similar procedures are used with other crops such as cereals, corn, cotton, and potatoes.
The experiments were conducted in a greenhouse following the procedure developed by Hwang et al. (2006). The isolate of Rhizoctonia solani was grown on potato dextrose agar plates and cultured for 5 days for inoculating oat or wheat grain. One liter of grain was soaked overnight at room temperature (25° C.) and rinsed three times with tape water. The 8×12-in autoclave bags were filled with the grain up to ⅓ full were autoclaved at 121° C. for 15 min. The autoclaved grain then was then inoculated with 5 pieces of 1×1 cm plug of the 5-day culture of R. solani per bag and cultured for 5 days at room temperature (25° C.). The bags were left open in laminar flow hood to let the grain completely dry.
The blank seed sample of 10 g to be coated was placed in a flask. Coating agent SEPIRET® 1171-O (Becker Underwood Ltd., Ames, Iowa) was put into the flasks together with the compound of interest, and the flask was shaken vigorously so that the seed picked up the compound. The procedure was repeated with fresh seed sample of cvs. “White Lion” (Kitazawa Seed Co., Oakland, Calif.) or “Viking 2265” (Johnny's Selected Seeds, Winslow, Me.) in the same flask for the treatments. After the seeds were coated, they were left to air dry before planting.
To prepare the soil, five hundred milliliters of the dried grains with inoculum were blended for 15 seconds three times and the powder was mixed with sterile sand at 1:1 (v/v) to dilute the inoculum. The sand mix was further used to prepare soil mix at various proportions 1:350 to 1:800 (inoculum:soil) for soybean to generate various disease levels in repeated tests.
The coated seeds were planted in the pots with infested soil. There were three replicates of each treatment which were arranged in a complete randomized block design and placed at 25 to 30° C. in a greenhouse.
After 10 to 20 days, depending on disease pressure and temperature, emergence of each treatment was rated and compared. Biomass was measured by weighing the above-ground portion which was measured for each replicate of the plant material.

[1] = Example VI, acibenzolar-S-methyl 25 ug/ml alone
[2] = Example IV, azoxystrobin 0.25 ug/ml alone
[3] = Example IV, azoxystrobin 0.5 ug/ml alone
[4] = Example IV, azoxystrobin 1.0 ug/ml alone
[5] = Example IV, azoxystrobin 5.0 ug/ml alone
[6] = Example IV, azoxystrobin 10.0 ug/ml alone
[7] = Example XI (Test II), azoxystrobin 0.1 ug/ml alone
[8] = Example XI (Test II), azoxystrobin 0.25 ug/ml alone
[9] = Example XI (Test II), azoxystrobin 0.5 ug/ml alone
[10] = Example VIII, azoxystrobin 0.0298 g/kg alone
[11] = Example IX, fludioxonil 0.0596 g ai/kg alone
[12] = Example VII, mefenoxam 37.5 ug/ml alone
[13] = Example VII, mefenoxam 75 ug/ml alone
[14] = Example VII, mefenoxam 150 ug/ml alone
[15] = Example I, myclobutanil 0.05 ug/ml alone
[16] = Example I, myclobutanil 0.1 ug/ml alone
[17] = Example I, myclobutanil 0.25 ug/ml alone
[18] = Example II (repeated test), myclobutanil 0.05 ug/ml alone
[19] = Example II (repeated test), myclobutanil 0.1 ug/ml alone
[20] = Example II (repeated test), myclobutanil 0.25 ug/ml alone
[21] = Example X, propiconazole 1.0 ug/ml alone
[22] = Example III, quinoxyfen 0.01 ug/ml alone
[23] = Example III, quinoxyfen 0.05 ug/ml alone
[24] = Example V, triflumizole 0.25 ug/ml alone
[25] = Example V, triflumizole 0.5 ug/ml alone
[26] = Example V, triflumizole 1.0 ug/ml alone

CSC(=O)c1cccc2nnsc12 [acibenzolar-S-methyl]
Control (%) (Bremia lactucae; [1]): 23.4% | Severity (%) (Bremia lactucae; [1]): 68.9%

CO/C=C(/C(=O)OC)c1ccccc1Oc1cc(Oc2ccccc2C#N)ncn1 [azoxystrobin]
Control (%) (Sphaerotheca fuliginea; [2]): 51.8% | Severity (%) (Sphaerotheca fuliginea; [2]): 45.0% | Control (%) (Sphaerotheca fuliginea; [3]): 48.0% | Severity (%) (Sphaerotheca fuliginea; [3]): 48.8% | Control (%) (Sphaerotheca fuliginea; [4]): 68.1% | Severity (%) (Sphaerotheca fuliginea; [4]): 30.0% | Control (%) (Sphaerotheca fuliginea; [5]): 94.3% | Severity (%) (Sphaerotheca fuliginea; [5]): 5.3% | Control (%) (Sphaerotheca fuliginea; [6]): 87.6% | Severity (%) (Sphaerotheca fuliginea; [6]): 11.3% | Control (%) (Sphaerotheca fuliginea; [7]): 21.6% | Severity (%) (Sphaerotheca fuliginea; [7]): 72.5% | Control (%) (Sphaerotheca fuliginea; [8]): 13.5% | Severity (%) (Sphaerotheca fuliginea; [8]): 80.0% | Control (%) (Sphaerotheca fuliginea; [9]): 62.2% | Severity (%) (Sphaerotheca fuliginea; [9]): 35.0% | Control (%) (Rhizoctonia solani; [10]): 81.5% | Emergence (%) (Rhizoctonia solani; [10]): 86.4%

N#Cc1c[nH]cc1-c1cccc2c1OC(F)(F)O2 [fludioxonil]
Bio mass (Rhizoctonia solani; [11]): 8.7 g | Control (%) (Rhizoctonia solani; [11]): 28.4% | Emergence (%) (Rhizoctonia solani; [11]): 35.8%

COCC(=O)N(c1c(C)cccc1C)[C@H](C)C(=O)OC [mefenoxam]
Control (%) (Bremia lactucae; [12]): −2.6% | Severity (%) (Bremia lactucae; [12]): 89.3% | Control (%) (Bremia lactucae; [13]): 37.7% | Severity (%) (Bremia lactucae; [13]): 54.2% | Control (%) (Bremia lactucae; [14]): 48.5% | Severity (%) (Bremia lactucae; [14]): 44.8%

CCCCC(C#N)(Cn1cncn1)c1ccc(Cl)cc1 (centres unmarked) [myclobutanil]
Control (%) (Sphaerotheca fuliginea; [15]): 2.5% | Severity (%) (Sphaerotheca fuliginea; [15]): 95.8% | Control (%) (Sphaerotheca fuliginea; [16]): 3.2% | Severity (%) (Sphaerotheca fuliginea; [16]): 95.0% | Control (%) (Sphaerotheca fuliginea; [17]): 83.1% | Severity (%) (Sphaerotheca fuliginea; [17]): 16.7% | Control (%) (Sphaerotheca fuliginea; [18]): −2.8% | Severity (%) (Sphaerotheca fuliginea; [18]): 93.8% | Control (%) (Sphaerotheca fuliginea; [19]): 12.2% | Severity (%) (Sphaerotheca fuliginea; [19]): 80.0% | Control (%) (Sphaerotheca fuliginea; [20]): 41.3% | Severity (%) (Sphaerotheca fuliginea; [20]): 53.8%

CCCC1COC(Cn2cncn2)(c2ccc(Cl)cc2Cl)O1 (centres unmarked) [propiconazole]
Control (%) (Sphaerotheca fuliginea; [21]): 1.3% | Severity (%) (Sphaerotheca fuliginea; [21]): 97.5%

Fc1ccc(Oc2ccnc3cc(Cl)cc(Cl)c23)cc1 [quinoxyfen, 5,7-dichloro-4-quinolyl 4-fluorophenyl ether]
Control (%) (Sphaerotheca fuliginea; [22]): 1.33% | Severity (%) (Sphaerotheca fuliginea; [22]): 90.0% | Control (%) (Sphaerotheca fuliginea; [23]): 66.95% | Severity (%) (Sphaerotheca fuliginea; [23]): 30.0%

CCCOC/C(=N\c1ccc(Cl)cc1C(F)(F)F)n1ccnc1 [triflumizole]
Control (%) (Sphaerotheca fuliginea; [24]): 2.6% | Severity (%) (Sphaerotheca fuliginea; [24]): 95.0% | Control (%) (Sphaerotheca fuliginea; [25]): 11.5% | Severity (%) (Sphaerotheca fuliginea; [25]): 86.3% | Control (%) (Sphaerotheca fuliginea; [26]): 20.5% | Severity (%) (Sphaerotheca fuliginea; [26]): 77.5%
